Legend:
Plasmodium falciparum [1] = test: Antiplasmodial activity against synchronized ring stage of chloroquine-sensitive Plasmodium falciparum 3D7 infected in human erythrocytes assessed as inhibition of parasite replication after 72 hrs by DAPI staining based fluorescence imaging analysis; assay type: functional, organism-based; details: 3D7, 72 h
[2] = (§1) Cytotoxicity against HEK293 cells assessed as inhibition of cell proliferation at 100 uM relative to control; assay type: cell-based; details: human, HEK293 cells
Plasmodium falciparum [3] = test: Antiplasmodial activity against synchronized ring stage of chloroquine-sensitive Plasmodium falciparum 3D7 infected in human erythrocytes assessed as inhibition of parasite replication at higher concentration after 72 hrs by DAPI staining based fluorescence imaging analysis relative to control; assay type: functional
HEK293 = test: as §1; assay type: cell-based; details: human, hek293, 100 µM

SMILES | IC50 (Plasmodium falciparum [1]) [µM] | inhibition at 100 µM [2] [%] | inhibition (INH) (Plasmodium falciparum [3]) [%] | Activity (HEK293)
CC1(C)C(=O)C2=C(O[C@]3(CC[C@H]4C[C@@H]3C4(C)C)C[C@@H]2c2ccccc2)C(C)(C)C1=O | 12.5 | 64 |  | 
CC1(C)C(=O)C2=C(O[C@]3(CC[C@H]4C[C@@H]3C4(C)C)C[C@H]2c2ccccc2)C(C)(C)C1=O | 9.9 |  | 100 | 
CC1(C)C(=O)C2=C(O[C@@]3(C)[C@H](C[C@@H]4C[C@H]3C4(C)C)[C@H]2c2ccccc2)C(C)(C)C1=O | 20.8 |  | 100 | Non-Toxic

From ChEMBL document CHEMBL4266046, “β-Triketone-Monoterpene Hybrids from the Flowers of the Australian Tree Corymbia intermedia” (J Nat Prod, 2018)
